Data published in article PMC12192077, “Leveraging Neural ODEs for Population Pharmacokinetics of Dalbavancin in Sparse Clinical Data” (Entropy, 2025).
Where two headings read alike, the source gives them in different places.

Experiments:
clinical = conditions: in vivo
Description: The dataset used in this study was collected from a cohort of 218 patients undergoing Dalbavancin treatment and who underwent therapeutic drug monitoring (TDM) of Dalbavancin at the IRCCS, Azienda Ospedaliero Universitaria di Bologna between April 2021 and December 2024. Dalbavancin is a long-acting antibiotic used for the treatment of skin and soft tissue infections and as a second-line agent in patients with staphylococcal infections, such as bone and joint infections, vascular prosthetic joint infections and endocarditis. At our center, Dalbavancin plasma exposure is optimized by means of TDM, which is the medical practice of measuring drug concentration in plasma in order to guide drug dosing for attaining a pre-defined target of efficacy. Dalbavancin is a semisynthetic lipoglycopeptide derived from the teicoplanin-like antibiotic A-40926, which is an agent naturally produced by the actinomycete Nonomuria spp. […] The long lipophilic side chain in the Dalbavancin molecule serves a dual purpose by both extending the half-life, as well as anchoring the compound to the membrane, which enhances its antimicrobial activity.
The data acquisition process involved recording patient covariates, drug administration details and serial blood sampling for pharmacokinetic analysis. Dalbavancin doses ranged from 350mg to 1500mg , with a total of 703 administrations recorded. Blood samples were obtained at various time points following drug administration, resulting in 669 concentration measurements. Standardized laboratory procedures were followed for quantifying Dalbavancin levels in plasma, ensuring accuracy and consistency across all samples.
To ensure robust model evaluation, we employed a cross-validation approach. Given the dataset size and the need for a balance between the training and validation data, we opted for a 6-fold cross-validation framework. This choice provides a good trade-off between statistical reliability and computational efficiency, allowing each model to be trained and validated on multiple subsets of the data while maintaining a sufficient amount of training data per fold.
Since the compartment models are systems of differential equations, the replacement of these equations with an NN is direct:(2a) dCc/dt=−CcCl/V1−CcQ/V1+CpQ/V2dCp/dt=CcQ/V1−CpQ/V2 (2b) dh(t)/dt=fnn(h(t),t;θ) The differential equation systems (2a) represent a simple two-compartment model with the four parameters that need to be fitted: V1 and V2 are the volumes of the central and peripheral compartments, Cl the clearance, Q the intercompartmental clearance and Cc and Cp the concentrations of the two compartments.
In addition to the main FNN, the model includes an additional parameter, the distribution volume ( VNODE ), which is learned through gradient descent with the whole FNN. […]

[1] = in vivo; cited from earlier work

With `CN[C@H]1C(=O)N[C@@H]2Cc3ccc(cc3)Oc3cc4cc(c3O[C@@H]3O[C@H](C(=O)O)[C@@H](O)[C@H](O)[C@H]3NC(=O)CCCCCCCCC(C)C)Oc3ccc(cc3Cl)[C@@H](O)[C@@H]3NC(=O)[C@H](NC(=O)[C@@H]4NC(=O)[C@@H](NC2=O)c2cc(cc(O)c2Cl)Oc2cc1ccc2O)c1ccc(O)c(c1)-c1c(O[C@H]2O[C@H](CO)[C@@H](O)[C@H](O)[C@@H]2O)cc(O)cc1[C@@H](C(=O)NCCCN(C)C)NC3=O` [Dalbavancin] as the molecule, how does the clearance (clinical; human, Cl (clearance), SD) read?
Its clearance is 0.9 mL/min.

What about the “Cl (clearance)” value (clinical; human, SD) of the same molecule?
The value was 0.0367 ± 0.0006 L/h.

What about the “VNODE (distribution volume)” value (clinical) of the same molecule?
The value was 5.7 ± 0.1 L.

What about the “VNODE,cov (distribution volume)” value (clinical; SD) of the same molecule?
Its value is 5.2 ± 0.8 L.

And the “Cl (clearance)” value [1]?
Its value is 0.031 ± 0.004 L/h.

And the “Q (intercompartmental clearance)” value [1]?
Its value is 0.038 ± 0.013 L/h.

What about the “V1 (volume of central compartment)” value [1] of the same molecule?
The value was 5.9 ± 0.3 L.

And the “V2 (volume of peripheral compartment)” value [1]?
The value was 9.6 ± 1.4 L.
